These results are taken from paper PMC7726444 (Frontiers in Pharmacology, 2020).

The target of one assay is T1, WT human TH (Homo sapiens, UniProt P07101).
T1 construct: made in house
Briefly: TH enzymatic activity assay (selectivity). The class given is biochemical. The note with it: up to a concentration of 100 µM. How it is done:
Full-length WT TPH1 and TPH2 were expressed as N-terminal six-His-maltose-binding protein fusion proteins in pETM-41 and were cleaved and purified as described previously ([McKinney et al., 2004]; [Winge et al., 2007]). Human WT PAH and TH were expressed and isolated as described previously ([Flydal et al., 2012]; [Bezem et al., 2016]).
Purified WT human TPH2, PAH, and TH were used for this purpose, and the activity assays for each enzyme was performed as described previously ([Haavik and Flatmark, 1980]; [Winge et al., 2007]; [Aubi et al., 2015]; [Bezem et al., 2016]).

Assay [1] has as its target T2, doubly truncated TPH1 (ΔNH102-ΔCOOH402) (Homo sapiens, UniProt P17752).
T2 construct: The ΔNH102-ΔCOOH402 human TPH1 gene was cloned; six-His (C); made in house
Briefly: Mechanism of action and kinetics analysis of TPH1 inhibition (Michaelis-Menten). It counts as biochemical. How it is done: 5-OH-Trp formation was measured either at a fixed concentration (200 µM) of the cofactor, BH4, and varying concentrations (0.625–20 µM) of the substrate, L-Trp, or in the presence of varying concentrations of BH4 (2.4–200 µM) and a fixed concentration (20 µM) of L-Trp. Kinetic parameters were estimated by fitting the Michaelis-Menten model to the data using nonlinear regression.
Human doubly truncated TPH1 (ΔNH102-ΔCOOH402) was used for kinetic protein-ligand interaction studies. The enzyme assays were performed as described above. […] When enzyme activity was measured as a function of substrate (L-Trp) concentration (0.625–20 µM), the concentration of the cofactor (BH4) was fixed at 200 µM.

The test system of a further assay is CD-1 mice. Description: Tail suspension test. It counts as in vivo, mouse. The following applies: 100 mg/kg i.p. once daily for 4 days, test 20 h after last dose, 6 min trial; p = 0.028, Mann-Whitney test. The source says: Male CD-1 mice (Janvier Labs, Le Genest-St-Isle, France), 3 months of age were used. The animals in the different treatment groups were matched for age. The University of Barcelona’s Committee on Animal Use and Care approved the protocol. Animals were housed and tested in compliance with the guidelines described in the Guide for the Care and Use of Laboratory Animals ([Clark et al., 1997]) and following the European Union directives (2010/63/EU), FELASA and ARRIVE guidelines. All efforts were made to minimize animal suffering and the number of animals used. All animals were housed in groups of five in standard cages with ad libitum access to food and water and maintained under a 12-h dark/light cycle (starting at 7:30 AM), 22°C temperature, and 66% humidity. […] While all treated animals were tested in the tail suspension test, brain tissue from eight of the vehicle-treated and nine of the omeprazole-treated mice was used for subsequent analysis of 5-HT content. Serum samples for 5-HT analysis were drawn from another nine vehicle-treated and eight omeprazole-treated mice.
Immobility time in the tail suspension test is known to be sensitive to manipulations that alter brain 5-HT content ([Garcia-Miralles et al., 2016]; [Palucha-Poniewiera et al., 2017]). […] Each animal was suspended for 6 min and the time spent immobile during suspension was counted using a stopwatch. […]

T2 sequence (P17752 102-402, stated change not applied): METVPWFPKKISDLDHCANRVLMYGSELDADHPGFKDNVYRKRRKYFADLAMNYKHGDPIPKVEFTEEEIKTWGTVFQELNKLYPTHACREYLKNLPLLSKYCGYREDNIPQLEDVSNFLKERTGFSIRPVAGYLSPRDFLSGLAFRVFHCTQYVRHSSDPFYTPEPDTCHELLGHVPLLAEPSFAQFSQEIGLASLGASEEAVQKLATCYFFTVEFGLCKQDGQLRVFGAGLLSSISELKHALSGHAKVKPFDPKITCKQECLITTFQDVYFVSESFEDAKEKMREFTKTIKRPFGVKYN
T1 sequence (P07101 1-497 isoform P07101-3): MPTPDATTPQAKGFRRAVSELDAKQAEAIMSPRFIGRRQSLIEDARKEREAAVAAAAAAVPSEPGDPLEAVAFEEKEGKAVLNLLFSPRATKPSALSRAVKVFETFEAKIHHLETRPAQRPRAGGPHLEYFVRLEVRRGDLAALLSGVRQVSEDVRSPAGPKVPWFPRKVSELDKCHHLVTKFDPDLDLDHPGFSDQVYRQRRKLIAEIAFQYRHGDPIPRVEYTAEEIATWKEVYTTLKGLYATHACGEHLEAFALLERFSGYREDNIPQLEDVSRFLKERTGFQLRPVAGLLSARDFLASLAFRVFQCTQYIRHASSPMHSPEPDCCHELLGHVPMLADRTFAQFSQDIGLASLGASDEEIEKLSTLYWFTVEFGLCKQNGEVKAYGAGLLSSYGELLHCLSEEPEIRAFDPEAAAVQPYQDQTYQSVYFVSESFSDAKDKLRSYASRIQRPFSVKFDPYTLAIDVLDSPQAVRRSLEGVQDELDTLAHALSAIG

For `COc1ccc2[nH]c([S+]([O-])Cc3ncc(C)c(OC)c3C)nc2c1` (stereo not drawn) [Omeprazole], the “inhibition of TH” value against WT human TH is “no inhibition”. The Vmax in assay [1] ((A) L-Trp 0.625–20 µM, BH4 200 µM, omeprazole 1 µM) is recorded as 24.96 (23.18–26.74) µmol/min/mg; in assay [1] ((A) L-Trp 0.625–20 µM, BH4 200 µM, omeprazole 10 µM), 21.08 (18.84–23.32) µmol/min/mg; in assay [1] ((A) L-Trp 0.625–20 µM, BH4 200 µM, omeprazole 100 µM) it was 7.03 (6.07–7.98) µmol/min/mg; in assay [1] ((B) BH4 2.4–200 µM, L-Trp 20 µM, omeprazole 1 µM), 39.93 (37.18–42.69) µmol/min/mg; in assay [1] ((B) BH4 2.4–200 µM, L-Trp 20 µM, omeprazole 10 µM) it was 31.06 (28.90–33.21) µmol/min/mg; in assay [1] ((B) BH4 2.4–200 µM, L-Trp 20 µM, omeprazole 100 µM), 21.11 (18.96–23.26) µmol/min/mg. In addition, in assay [1] (with respect to L-Trp and to BH4), the “mode of TPH1 inhibition” value is listed as “non-competitive inhibitor”. Further, the “time spent immobile in tail suspension test vs vehicle” value in the assay with CD-1 mice was “significantly less time immobile”.
